Laboratory results: the NIST ThermoML archive (doi:10.1021/je501178z)
“And” between values parts separate entries of the source, which are not always exact repeats. Equal values may be shown once. ± gives the expanded uncertainty stated by the source.

Test: mn = molality of the nth substance listed, in mol/kg
Settings: 101.3 kPa, Liquid; for viscosity: Capillary tube (Ostwald / Ubbelohde) method; for mass density: Vibrating tube method

CC(C)[C@H](N)C(=O)O [L-valine] + O
Settings	mass density, m1 = 0.1 [kg/m3]	mass density, m1 = 0.2001 [kg/m3]	mass density, m1 = 0.3001 [kg/m3]	mass density, m1 = 0.4002 [kg/m3]	mass density, m1 = 0.5 [kg/m3]	viscosity, m1 = 0.1 [mPa·s]	viscosity, m1 = 0.2001 [mPa·s]	viscosity, m1 = 0.3001 [mPa·s]	viscosity, m1 = 0.4002 [mPa·s]	viscosity, m1 = 0.5 [mPa·s]
293.15 K	1000.88 ± 0.18	1003.51 ± 0.18	1006.08 ± 0.18	1008.6 ± 0.18	1011.05 ± 0.18	1.044 ± 0.022	1.089 ± 0.023	1.135 ± 0.024	1.184 ± 0.025	1.233 ± 0.026
303.15 K	998.29 ± 0.18	1000.88 ± 0.18	1003.41 ± 0.18	1005.89 ± 0.18	1008.31 ± 0.18	0.829 ± 0.018	0.862 ± 0.018	0.896 ± 0.019	0.929 ± 0.02	0.965 ± 0.02
313.15 K	994.81 ± 0.18	997.37 ± 0.18	999.88 ± 0.18	1002.33 ± 0.18	1004.72 ± 0.18	0.678 ± 0.014	0.702 ± 0.015	0.728 ± 0.015	0.753 ± 0.016	0.779 ± 0.017
323.15 K	990.6 ± 0.18	993.11 ± 0.18	995.57 ± 0.18	997.98 ± 0.18	1000.34 ± 0.18	0.565 ± 0.012	0.585 ± 0.012	0.604 ± 0.013	0.624 ± 0.013	0.644 ± 0.014

C[C@H](N)C(=O)O [(S)-2-aminopropanoic acid] + O
Settings	mass density, 293.15 K [kg/m3]	mass density, 303.15 K [kg/m3]	mass density, 313.15 K [kg/m3]	mass density, 323.15 K [kg/m3]	viscosity, 293.15 K [mPa·s]	viscosity, 303.15 K [mPa·s]	viscosity, 313.15 K [mPa·s]	viscosity, 323.15 K [mPa·s]
m1 = 0.1	1001.06 ± 0.18	998.48 ± 0.18	995.01 ± 0.18	990.81 ± 0.18	1.027 ± 0.022	0.817 ± 0.017	0.668 ± 0.014	0.559 ± 0.012
m1 = 0.2	1003.88 ± 0.18	1001.27 ± 0.18	997.76 ± 0.18	993.55 ± 0.18	1.053 ± 0.022	0.837 ± 0.018	0.684 ± 0.015	0.571 ± 0.012
m1 = 0.3	1006.66 ± 0.18	1004.01 ± 0.18	1000.47 ± 0.18	996.24 ± 0.18	1.079 ± 0.023	0.856 ± 0.018	0.7 ± 0.015	0.584 ± 0.012
m1 = 0.4002	1009.39 ± 0.18	1006.71 ± 0.18	1003.14 ± 0.18	998.9 ± 0.18	1.107 ± 0.023	0.877 ± 0.019	0.715 ± 0.015	0.596 ± 0.013
m1 = 0.5001	1012.06 ± 0.18	1009.35 ± 0.18	1005.76 ± 0.18	1001.5 ± 0.18	1.134 ± 0.024	0.897 ± 0.019	0.731 ± 0.016	0.609 ± 0.013
m1 = 0.6002	1014.69 ± 0.18	1011.95 ± 0.18	1008.33 ± 0.18	1004.06 ± 0.18	1.163 ± 0.025	0.919 ± 0.019	0.749 ± 0.016	0.622 ± 0.013
m1 = 0.6999	1017.27 ± 0.18	1014.5 ± 0.18	1010.86 ± 0.18	1006.58 ± 0.18	1.191 ± 0.025	0.94 ± 0.02	0.765 ± 0.016	0.635 ± 0.013

C[C@@H](O)[C@H](N)C(=O)O [L-threonine] + O
Settings	mass density, 293.15 K [kg/m3]	mass density, 303.15 K [kg/m3]	mass density, 313.15 K [kg/m3]	mass density, 323.15 K [kg/m3]	viscosity, 293.15 K [mPa·s]	viscosity, 303.15 K [mPa·s]	viscosity, 313.15 K [mPa·s]	viscosity, 323.15 K [mPa·s]
m1 = 0.0999	1002.41 ± 0.18	999.81 ± 0.18	996.32 ± 0.18	992.11 ± 0.18	1.035 ± 0.022	0.823 ± 0.017	0.673 ± 0.014	0.562 ± 0.012
m1 = 0.1999	1006.56 ± 0.18	1003.9 ± 0.18	1000.37 ± 0.18	996.12 ± 0.18	1.072 ± 0.023	0.849 ± 0.018	0.693 ± 0.015	0.579 ± 0.012
m1 = 0.2999	1010.63 ± 0.18	1007.92 ± 0.18	1004.34 ± 0.18	1000.05 ± 0.18	1.107 ± 0.023	0.876 ± 0.019	0.714 ± 0.015	0.595 ± 0.013
m1 = 0.4002	1014.64 ± 0.18	1011.87 ± 0.18	1008.25 ± 0.18	1003.93 ± 0.18	1.145 ± 0.024	0.905 ± 0.019	0.736 ± 0.016	0.613 ± 0.013
m1 = 0.5	1018.55 ± 0.18	1015.73 ± 0.18	1012.07 ± 0.18	1007.71 ± 0.18	1.184 ± 0.025	0.934 ± 0.02	0.759 ± 0.016	0.63 ± 0.013
m1 = 0.6	1022.4 ± 0.19	1019.52 ± 0.18	1015.83 ± 0.18	1011.44 ± 0.18	1.225 ± 0.026	0.965 ± 0.02	0.782 ± 0.017	0.649 ± 0.014
m1 = 0.6998	1026.16 ± 0.19	1023.24 ± 0.19	1019.52 ± 0.18	1015.1 ± 0.18	1.269 ± 0.027	0.996 ± 0.021	0.806 ± 0.017	0.667 ± 0.014

OC[C@@H](O)[C@@H](O)[C@H](O)[C@H](O)CO [D-mannitol] + O
Settings	mass density, m1 = 0.2 [kg/m3]	mass density, m1 = 0.4	mass density, m1 = 0.6 [kg/m3]	mass density, m1 = 0.8 [kg/m3]	mass density, m1 = 1 [kg/m3]	viscosity, m1 = 0.2 [mPa·s]	viscosity, m1 = 0.4	viscosity, m1 = 0.6 [mPa·s]	viscosity, m1 = 0.8 [mPa·s]	viscosity, m1 = 1
293.15 K	1010.52 ± 0.15	1022.31 ± 0.16 kg/m3	1033.43 ± 0.16	1043.98 ± 0.16	1054.13 ± 0.17	1.104 ± 0.023	1.221 ± 0.026 mPa·s	1.336 ± 0.028	1.494 ± 0.031	1.643 ± 0.034 mPa·s
303.15 K	1007.82 ± 0.15	1019.39 ± 0.16 kg/m3	1030.35 ± 0.16	1040.88 ± 0.16	1050.85 ± 0.17	0.874 ± 0.018	0.959 ± 0.02 mPa·s	1.044 ± 0.022	1.151 ± 0.024	1.262 ± 0.026 mPa·s
313.15 K	1004.26 ± 0.15	1015.71 ± 0.18 kg/m3 and 1015.74 ± 0.16 kg/m3	1026.6 ± 0.16	1036.92 ± 0.16	1046.79 ± 0.17	0.711 ± 0.015	0.775 ± 0.016 mPa·s and 0.776 ± 0.016 mPa·s	0.841 ± 0.018	0.917 ± 0.019	1.001 ± 0.021 mPa·s and 1 ± 0.021 mPa·s
323.15 K	999.96 ± 0.15	1011.28 ± 0.15 kg/m3	1022.09 ± 0.16	1032.28 ± 0.16	1042.15 ± 0.16	0.592 ± 0.013	0.642 ± 0.014 mPa·s	0.693 ± 0.015	0.752 ± 0.016	0.814 ± 0.017 mPa·s

NCC(=O)O [2-aminoacetic acid] + O
Settings	mass density, 293.15 K [kg/m3]	mass density, 303.15 K [kg/m3]	mass density, 313.15 K [kg/m3]	mass density, 323.15 K [kg/m3]	viscosity, 293.15 K [mPa·s]	viscosity, 303.15 K [mPa·s]	viscosity, 313.15 K [mPa·s]	viscosity, 323.15 K [mPa·s]
m1 = 0.1002	1001.41 ± 0.15	998.8 ± 0.15	–	991.11 ± 0.15	1.015 ± 0.021	0.809 ± 0.017	0.663 ± 0.014	0.555 ± 0.012
m1 = 0.2	1004.57 ± 0.15	1001.91 ± 0.15	–	994.14 ± 0.15	1.029 ± 0.022	0.82 ± 0.017	0.672 ± 0.014	0.563 ± 0.012
m1 = 0.3002	1007.7 ± 0.15	1004.98 ± 0.15	1001.42 ± 0.15	997.14 ± 0.15	1.042 ± 0.022	0.831 ± 0.018	0.681 ± 0.014	0.571 ± 0.012
m1 = 0.4001	1010.77 ± 0.15	1008 ± 0.15	1004.4 ± 0.15	1000.09 ± 0.15	1.057 ± 0.022	0.842 ± 0.018	0.691 ± 0.015	0.579 ± 0.012
m1 = 0.5001	1013.8 ± 0.15	1010.98 ± 0.15	1007.35 ± 0.15	1003.01 ± 0.15	1.072 ± 0.023	0.855 ± 0.018	0.701 ± 0.015	0.587 ± 0.012
m1 = 0.6	1016.78 ± 0.16	1013.91 ± 0.15	1010.25 ± 0.15	1005.88 ± 0.15	1.086 ± 0.023	0.867 ± 0.018	0.711 ± 0.015	0.596 ± 0.013
m1 = 0.6998	1019.71 ± 0.16	1016.8 ± 0.16	1013.11 ± 0.15	1008.72 ± 0.15	1.101 ± 0.023	0.878 ± 0.018	0.721 ± 0.015	0.605 ± 0.013

N=C(N)NCCC[C@H](N)C(=O)O [L-arginine] + O
Settings	mass density, 293.15 K [kg/m3]	mass density, 303.15 K [kg/m3]	mass density, 313.15 K [kg/m3]	mass density, 323.15 K [kg/m3]	viscosity, 293.15 K [mPa·s]	viscosity, 303.15 K [mPa·s]	viscosity, 313.15 K [mPa·s]	viscosity, 323.15 K [mPa·s]
m1 = 0.1	1003.17 ± 0.27	1000.55 ± 0.27	997.05 ± 0.27	992.84 ± 0.27	1.054 ± 0.023	0.838 ± 0.018	0.685 ± 0.015	0.572 ± 0.012
m1 = 0.2	1008 ± 0.27	1005.3 ± 0.27	1001.75 ± 0.27	997.5 ± 0.27	1.108 ± 0.024	0.879 ± 0.019	0.717 ± 0.015	0.598 ± 0.013
m1 = 0.3001	1012.68 ± 0.28	1009.91 ± 0.27	1006.31 ± 0.27	1002.03 ± 0.27	1.167 ± 0.025	0.923 ± 0.02	0.751 ± 0.016	0.625 ± 0.014
m1 = 0.4	1017.21 ± 0.28	1014.38 ± 0.28	1010.73 ± 0.28	1006.41 ± 0.27	1.23 ± 0.026	0.97 ± 0.021	0.788 ± 0.017	0.654 ± 0.014
m1 = 0.5	1021.6 ± 0.28	1018.71 ± 0.28	1015.01 ± 0.28	1010.67 ± 0.27	1.298 ± 0.028	1.021 ± 0.022	0.826 ± 0.018	0.684 ± 0.015
m1 = 0.6	1025.86 ± 0.29	1022.9 ± 0.29	1019.15 ± 0.28	1014.8 ± 0.28	1.362 ± 0.029	1.069 ± 0.023	0.864 ± 0.019	0.714 ± 0.015
m1 = 0.7	1030 ± 0.29	1026.97 ± 0.29	1023.18 ± 0.29	1018.82 ± 0.28	1.435 ± 0.031	1.124 ± 0.024	0.905 ± 0.019	0.747 ± 0.016
